Results: ChEMBL document CHEMBL4622885, “Rational design, synthesis and biological evaluation of novel multitargeting anti-AD iron chelators with potent MAO-B inhibitory and antioxidant activity” (Bioorg Med Chem, 2020)

Experiments:
Mus musculus [1] = test: Antialzheimer activity in scopolamine-induced impairment in ICR mouse assessed as total distance to platform at 15 mg/kg, ip administered once a day for 10 days pretreated with scopolamine for 30 mins and measured at 5th day of training session by Morris water maze test (reference value: 6.56 +/- 1.27 m); assay type: functional
PC-12 [2] = test: Neuroprotective activity against amyloid beta (1 to 42 residues) induced cytotoxicity in rat PC12 cells assessed as cell viability at 10 uM incubated for 24 hrs by MTT assay (reference value: 100%); assay type: functional; conditions: PC-12, 24 h, read-out: Activity
Mus musculus [3] = test: Antialzheimer activity in scopolamine-induced impairment in ICR mouse assessed as total entries at 15 mg/kg, ip administered once a day for 10 days pretreated with scopolamine for 30 mins and measured at 5th day of training session by Morris water maze test (reference value: 2.19 +/- 0.16); assay type: functional
Mus musculus [4] = test: Antialzheimer activity in scopolamine-induced impairment in ICR mouse assessed as latency time at 15 mg/kg, ip administered once a day for 10 days pretreated with scopolamine for 30 mins and measured at 5th day of training session by Morris water maze test (reference value: 29.4 +/- 5.77 sec); assay type: functional
PC-12 [5] = test: Neuroprotective activity in amyloid beta (1 to 42 residues) (unknown origin)-induced ROS production in rat PC12 cells assessed as intracellular ROS level at 10 uM pretreated for 36 hrs followed by incubation with DCFH-DA for 10 mins by flow cytometry analysis (reference value: 30.7%); assay type: functional
[6] = biological target: T1, Amine oxidase [flavin-containing] B (Homo sapiens, UniProt P27338); test: Inhibition of human recombinant MAO-B expressed in baculovirus infected BTI insect cells using kynuramine as substrate at 100 nM incubated for 10 mins followed by substrate addition by fluorimetric analysis relative to control
T1 sequence (P27338 whole entry): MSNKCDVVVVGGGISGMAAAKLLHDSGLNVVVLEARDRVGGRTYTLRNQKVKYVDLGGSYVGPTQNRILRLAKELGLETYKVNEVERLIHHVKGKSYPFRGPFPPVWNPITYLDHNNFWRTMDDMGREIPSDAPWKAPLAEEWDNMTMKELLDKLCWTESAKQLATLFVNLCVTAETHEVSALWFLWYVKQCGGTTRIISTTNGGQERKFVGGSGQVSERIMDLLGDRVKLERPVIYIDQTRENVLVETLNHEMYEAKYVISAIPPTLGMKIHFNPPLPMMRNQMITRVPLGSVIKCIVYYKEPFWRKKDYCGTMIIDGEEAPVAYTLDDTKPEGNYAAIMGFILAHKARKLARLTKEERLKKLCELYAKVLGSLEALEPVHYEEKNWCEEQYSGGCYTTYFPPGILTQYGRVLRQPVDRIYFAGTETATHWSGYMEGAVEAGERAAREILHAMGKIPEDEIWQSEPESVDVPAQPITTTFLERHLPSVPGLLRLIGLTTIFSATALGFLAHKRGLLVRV

[7] = Dissociation constant, pKa2 of compound for dissociation of the 3-hydroxyl group in 0.1 M KCl incubated for 1 min by UV-pH titration based spectrophotometric analysis; assay type: physicochemical
[8] = Cytotoxicity against rat PC12 cells assessed as cell viability at 3.13 uM incubated for 24 hrs by MTT assay relative to control; assay type: cell-based, PC-12; conditions: read-out: Activity
[9] = Cytotoxicity against rat PC12 cells assessed as cell viability at 6.25 uM incubated for 24 hrs by MTT assay relative to control; assay type: cell-based, PC-12; conditions: read-out: Activity
[10] = Metal chelating activity assessed as Fe3+ complex formation by measuring stability constant for Fe(I)2 in using pre Fe+3 complexed compound (FeCl3) in 0.1 M KCl :DMSO solution UV-pH titration based spectrophotometric analysis
[11] = Cytotoxicity against rat PC12 cells assessed as cell viability at 50 uM incubated for 24 hrs by MTT assay relative to control; assay type: cell-based, PC-12; conditions: read-out: Activity
[12] = Cytotoxicity against rat PC12 cells assessed as cell viability at 12.5 uM incubated for 24 hrs by MTT assay relative to control; assay type: cell-based, PC-12; conditions: read-out: Activity
[13] = Metal chelating activity assessed as Fe3+ complex formation by measuring stability constant for FeI in using pre Fe+3 complexed compound (FeCl3) in 0.1 M KCl :DMSO solution UV-pH titration based spectrophotometric analysis
[14] = Dissociation constant, pKa1 of compound for protonation of the 4-oxo group in 0.1 M KCl incubated for 1 min by UV-pH titration based spectrophotometric analysis; assay type: physicochemical
[15] = biological target: T1, Amine oxidase [flavin-containing] B; test: Inhibition of human recombinant MAO-B expressed in baculovirus infected BTI insect cells using kynuramine as substrate incubated for 10 mins followed by substrate addition by fluorimetric analysis
[16] = Metal chelating activity assessed as Fe3+ complex formation by measuring stability constant for Fe(I)3 in using pre Fe+3 complexed compound (FeCl3) in 0.1 M KCl :DMSO solution UV-pH titration based spectrophotometric analysis
[17] = Metal chelating activity assessed as iron chelation
[18] = Cytotoxicity against rat PC12 cells assessed as cell viability at 25 uM incubated for 24 hrs by MTT assay relative to control; assay type: cell-based, PC-12; conditions: read-out: Activity

inhibition at 0.1 µM [6] [%]	pKa at 1 min [7]	log(activity) [10]	log(activity) [13]	pKa at 1 min [14]	IC50 [15] [µM]	log(activity) [16]	pFe3+ [17]	SMILES	Activity (Mus musculus [1]) [m]	viability at 10 µM (PC-12 [2]) [%]	Activity (Mus musculus [3])	Time (Mus musculus [4]) [s]	Activity (PC-12 [5]) [%]	viability at 24 h, 3.13 µM [8] [%]	viability at 24 h, 6.25 µM [9] [%]	viability at 24 h, 50 µM [11] [%]	viability at 24 h, 12.5 µM [12] [%]	viability at 24 h, 25 µM [18] [%]
65.5	9.7	26.2	14.9	3.27	0.0879	35.3	18.9	COc1ccc2cc(C(=O)NCCn3ccc(=O)c(O)c3C)c(=O)oc2c1	3.87	88.2	4.63	14.94	8.2	98.7	99.9	61.7	98	90.4
46.5	9.58	25.4	14	3.28	0.131	32.9	17.2	Cc1c(O)c(=O)ccn1CCNC(=O)c1cc2cccc(OCc3ccccc3)c2oc1=O	–	–	–	–	–	–	–	–	–	–
45.9	9.75	26	14.6	3.31	0.135	34.6	18.1	CCCOc1ccc2cc(C(=O)NCCn3ccc(=O)c(O)c3C)c(=O)oc2c1	–	–	–	–	–	–	–	–	–	–
46	9.55	25.4	14.2	3.22	0.111	34.1	18.2	COc1cccc2cc(C(=O)NCCn3ccc(=O)c(O)c3C)c(=O)oc12	–	–	–	–	–	–	–	–	–	–
45.3	9.73	26.1	14.8	3.17	0.122	36.6	20.2	Cc1c(O)c(=O)ccn1CCNC(=O)c1cc2ccc(OCc3ccc(C(C)(C)C)cc3)cc2oc1=O	–	–	–	–	–	–	–	–	–	–

Continued, compound first:

SMILES	inhibition at 0.1 µM [6] [%]	pKa at 1 min [7]	log(activity) [10]	log(activity) [13]	pKa at 1 min [14]	IC50 [15] [µM]	log(activity) [16]	pFe3+ [17]	Activity (Mus musculus [1]) [m]	viability at 10 µM (PC-12 [2]) [%]	Activity (Mus musculus [3])	Time (Mus musculus [4]) [s]	Activity (PC-12 [5]) [%]	viability at 24 h, 3.13 µM [8] [%]	viability at 24 h, 6.25 µM [9] [%]	viability at 24 h, 50 µM [11] [%]	viability at 24 h, 12.5 µM [12] [%]	viability at 24 h, 25 µM [18] [%]
CC12CC3CC(C)(C1)CC(N)(C3)C2 [MEMANTINE]	–	–	–	–	–	–	–	–	3.52	55.2	5.19	13.42	30.51	–	–	–	–	–
Nc1c2c(nc3ccccc13)CCCC2 [TACRINE]	–	–	–	–	–	–	–	–	4.28	–	4.63	18.03	–	–	–	–	–	–
C#CCN(C)Cc1ccccc1 [PARGYLINE]	53	–	–	–	–	–	–	–	4.37	–	3.81	20.85	–	–	–	–	–	–
